Type in all cases: functional
Assay [1] has as its system K562. Description: Growth inhibition of human K562 cells assessed as cell growth at 0.003 uM incubated for 48 hrs by sulforhodamine B assay relative to control. As to conditions: K562, 48 h, read-out: Activity. On the technique in general: Sulforhodamine B stains cellular protein and so reports cell mass.
Another assay has as its system SR. The experiment in a line: Growth inhibition of human SR cells assessed as cell growth at 0.003 uM incubated for 48 hrs by sulforhodamine B assay relative to control. As to conditions: read-out: Activity.
Another assay relates to SF-539. Description: Growth inhibition of human SF539 cells assessed as cell growth at 0.003 uM incubated for 48 hrs by sulforhodamine B assay relative to control. The note with it: SF-539, 48 h, read-out: Activity.
A further assay deals with A498. The experiment in a line: Growth inhibition of human A498 cells assessed as cell growth at 0.003 uM incubated for 48 hrs by sulforhodamine B assay relative to control. As to conditions: A498, 48 h, read-out: Activity.
The test system of another assay is NCI-H460. The experiment in a line: Growth inhibition of human NCI-H460 cells assessed as cell growth at 0.03 uM incubated for 48 hrs by sulforhodamine B assay relative to control. As to conditions: NCI-H460, 48 h, read-out: Activity.
Another assay relates to HCC 2998. The experiment in a line: Growth inhibition of human HCC2998 cells assessed as cell growth at 0.03 uM incubated for 48 hrs by sulforhodamine B assay relative to control. The note with it: HCC 2998, 48 h, read-out: Activity.
The test system of the next assay is SF-295. Description: Growth inhibition of human SF295 cells assessed as cell growth at 0.03 uM incubated for 48 hrs by sulforhodamine B assay relative to control. As to conditions: SF-295, 48 h, read-out: Activity.
The subject of assay [2] is OVCAR-5. The experiment in a line: Growth inhibition of human OVCAR5 cells assessed as cell growth at 0.03 uM incubated for 48 hrs by sulforhodamine B assay relative to control. The note with it: OVCAR-5, 48 h, read-out: Activity.
The next assay has as its system 786-0. Description: Growth inhibition of human 786-0 cells assessed as cell growth at 0.03 uM incubated for 48 hrs by sulforhodamine B assay relative to control. As to conditions: 786-0, 48 h, read-out: Activity.
The subject of another assay is SN12C. Description: Growth inhibition of human SN12C cells assessed as cell growth at 0.03 uM incubated for 48 hrs by sulforhodamine B assay relative to control. The note with it: read-out: Activity.
Another assay deals with HOP-92. The experiment in a line: Growth inhibition of human HOP92 cells assessed as cell growth at 0.3 uM incubated for 48 hrs by sulforhodamine B assay relative to control. The note with it: HOP-92, 48 h, read-out: Activity.
Assay [3] has as its system OVCAR-5. The experiment in a line: Growth inhibition of human OVCAR5 cells assessed as cell growth at 0.3 uM incubated for 48 hrs by sulforhodamine B assay relative to control. As to conditions: OVCAR-5, 48 h, read-out: Activity.
Another assay concerns MCF7. The experiment in a line: Growth inhibition of human MCF7 cells assessed as cell growth at 0.3 uM incubated for 48 hrs by sulforhodamine B assay relative to control. As to conditions: MCF7, 48 h, read-out: Activity.
For assay [4], the system named is HL-60(TB). Description: Growth inhibition of human HL-60(TB) cells assessed as cell growth at 3 uM incubated for 48 hrs by sulforhodamine B assay relative to control. As to conditions: HL-60, 48 h, read-out: Activity.
Assay [5] relates to HL-60(TB). Description: Growth inhibition of human HL-60(TB) cells assessed as cell growth at 30 uM incubated for 48 hrs by sulforhodamine B assay relative to control. The note with it: HL-60, 48 h, read-out: Activity.
Assay [6] deals with K562. Description: Growth inhibition of human K562 cells assessed as cell growth at 30 uM incubated for 48 hrs by sulforhodamine B assay relative to control. As to conditions: K562, 48 h, read-out: Activity.
Assay [7] has as its system SNB-75. The experiment in a line: Growth inhibition of human SNB75 cells assessed as cell growth at 30 uM incubated for 48 hrs by sulforhodamine B assay relative to control. The note with it: SNB-75, 48 h, read-out: Activity.
The test system of another assay is M14. Description: Growth inhibition of human M14 cells assessed as cell growth at 30 uM incubated for 48 hrs by sulforhodamine B assay relative to control. As to conditions: M14, 48 h, read-out: Activity.
Another assay relates to SK-MEL-5. The experiment in a line: Growth inhibition of human SK-MEL-5 cells assessed as cell growth at 30 uM incubated for 48 hrs by sulforhodamine B assay relative to control. As to conditions: SK-MEL-5, 48 h, read-out: Activity.
In another assay the test system is DU-145. The experiment in a line: Growth inhibition of human DU145 cells assessed as cell growth at 30 uM incubated for 48 hrs by sulforhodamine B assay relative to control. The note with it: DU-145, 48 h, read-out: Activity.
In the next assay the test system is HCT-15. Description: Growth inhibition of human HCT15 cells assessed as cell growth at 0.01 uM incubated for 48 hrs by sulforhodamine B assay relative to control. The note with it: HCT-15, 48 h, read-out: Activity.
A further assay deals with UACC-257. Description: Growth inhibition of human UACC257 cells assessed as cell growth at 0.1 uM incubated for 48 hrs by sulforhodamine B assay relative to control. The note with it: UACC-257, 48 h, read-out: Activity.
The test system of another assay is RXF 393. The experiment in a line: Growth inhibition of human RXF393 cells assessed as cell growth at 0.1 uM incubated for 48 hrs by sulforhodamine B assay relative to control. The note with it: RXF 393, 48 h, read-out: Activity.
The subject of another assay is PC-3. Description: Growth inhibition of human PC3 cells assessed as cell growth at 0.1 uM incubated for 48 hrs by sulforhodamine B assay relative to control. The note with it: PC-3, 48 h, read-out: Activity.
A further assay has as its system U-251. Description: Growth inhibition of human U251 cells assessed as cell growth at 1 uM incubated for 48 hrs by sulforhodamine B assay relative to control. The note with it: U-251, 48 h, read-out: Activity.
For assay [8], the system named is OVCAR-4. The experiment in a line: Growth inhibition of human OVCAR4 cells assessed as cell growth at 1 uM incubated for 48 hrs by sulforhodamine B assay relative to control. As to conditions: OVCAR-4, 48 h, read-out: Activity.
The next assay has as its system NCI/ADR-RES. The experiment in a line: Growth inhibition of human NCI/ADR-RES cells assessed as cell growth at 1 uM incubated for 48 hrs by sulforhodamine B assay relative to control. The note with it: read-out: Activity.
For a further assay, the system named is Hs-578T. Description: Growth inhibition of human Hs 578T cells assessed as cell growth at 1 uM incubated for 48 hrs by sulforhodamine B assay relative to control. As to conditions: read-out: Activity.
Another assay has as its system A549. Description: Growth inhibition of human A549/ATCC cells assessed as cell growth at 10 uM incubated for 48 hrs by sulforhodamine B assay relative to control. The note with it: A549, 48 h, read-out: Activity.
Assay [9] has as its system NCI-H322M. Description: Growth inhibition of human NCI-H322M cells assessed as cell growth at 10 uM incubated for 48 hrs by sulforhodamine B assay relative to control. The note with it: read-out: Activity.
For assay [10], the system named is OVCAR-4. The experiment in a line: Growth inhibition of human OVCAR4 cells assessed as cell growth at 10 uM incubated for 48 hrs by sulforhodamine B assay relative to control. The note with it: OVCAR-4, 48 h, read-out: Activity.
A further assay has as its system UO-31. The experiment in a line: Growth inhibition of human UO31 cells assessed as cell growth at 10 uM incubated for 48 hrs by sulforhodamine B assay relative to control. As to conditions: UO-31, 48 h, read-out: Activity.
Assay [11] relates to NCI-H322M. The experiment in a line: Growth inhibition of human NCI-H322M cells assessed as cell growth at 100 uM incubated for 48 hrs by sulforhodamine B assay relative to control. As to conditions: read-out: Activity.
The subject of assay [12] is SNB-75. The experiment in a line: Growth inhibition of human SNB75 cells assessed as cell growth at 100 uM incubated for 48 hrs by sulforhodamine B assay relative to control. As to conditions: SNB-75, 48 h, read-out: Activity.
Another assay relates to T47D. Description: Growth inhibition of human T47D cells assessed as cell growth at 100 uM incubated for 48 hrs by sulforhodamine B assay relative to control. The note with it: read-out: Activity.

For the compound `Cc1nc2cc(O)c(O)cc2cc1Oc1ccc(NC(=O)Nc2ccc(Cl)c(Cl)c2)cc1`, the growth at 0.003 µM in the assay on K562 [1] turned out to be 122%; in the assay on SR, 100%; in the assay on SF-539, 102%; with A498, 85%. The growth at 0.03 µM turned out to be 99% in the assay on NCI-H460; 99% in the assay on HCC 2998; 90% with SF-295; 100% in the assay with OVCAR-5 [2]; 95% in the assay on 786-0; 102% in the assay with SN12C. The growth at 0.3 µM with HOP-92 stood at 77%; with OVCAR-5 [3], 106%; in the assay on MCF7, 86%. Also, the growth at 3 µM with HL-60(TB) [4] is 106%. The growth at 30 µM with HL-60(TB) [5] is -20%; in the assay with K562 [6], -3%; in the assay on SNB-75 [7] it was -4%; in the assay on M14, -51%; in the assay with SK-MEL-5, -47%; in the assay on DU-145 it was -10%.
`COc1cc2cc(Oc3ccc(NC(=O)Nc4ccc(Cl)c(C(F)(F)F)c4)cc3)c(C)nc2cc1OC`: the growth at 0.003 µM was 95% with K562 [1], 99% in the assay on SR, 108% in the assay with SF-539 and 91% with A498. For the same compound, the growth at 0.03 µM worked out at 105% with NCI-H460; 106% in the assay with HCC 2998; 91% in the assay on SF-295; 102% in the assay with OVCAR-5 [2]; 83% with 786-0; 95% in the assay on SN12C. For the same compound, the growth at 0.3 µM with HOP-92 was found to be 84%; in the assay on OVCAR-5 [3] it was 113%; with MCF7, 97%. Besides, in the assay on HL-60(TB) [4], the growth at 3 µM is -2%. Further, the growth at 30 µM in the assay on HL-60(TB) [5] was -22%; in the assay with K562 [6] it was -60%; with SNB-75 [7] it was -44%; with M14, -70%; in the assay with SK-MEL-5, -97%; in the assay with DU-145, -70%.
For `COc1cc2cc(Oc3ccc(NC(=O)Nc4ccc(Cl)c(Cl)c4)cc3)c(C)nc2cc1OC`, the growth at 0.01 µM with HCT-15 amounted to 100%. Besides, the growth at 0.1 µM with UACC-257 is 92%; with RXF 393, 111%; with PC-3, 95%. The growth at 1 µM came to 83% with U-251, 93% in the assay with OVCAR-4 [8], 76% in the assay on NCI/ADR-RES and 113% with Hs-578T. Moreover, the growth at 10 µM in the assay on A549 is -9%; with NCI-H322M [9] it was 47%; in the assay with OVCAR-4 [10], -8%; with UO-31 it was 6%. Moreover, the growth at 100 µM was -13% with NCI-H322M [11], -59% in the assay on SNB-75 [12] and -54% in the assay on T47D.
Take `COc1cc2cc(Oc3ccc(NC(=O)Nc4cc(C(F)(F)F)cc(C(F)(F)F)c4)cc3)c(C)nc2cc1OC`: the growth at 0.01 µM in the assay with HCT-15 worked out at 93%. The growth at 0.1 µM in the assay on UACC-257 was found to be 110%; in the assay with RXF 393, 99%; in the assay with PC-3, 89%. For the same compound, the growth at 1 µM with U-251 is 55%; in the assay with OVCAR-4 [8], 58%; in the assay with NCI/ADR-RES, 62%; in the assay on Hs-578T it was 101%. Besides, the growth at 10 µM was -31% in the assay with A549, -85% in the assay on NCI-H322M [9], -31% in the assay with OVCAR-4 [10] and -70% in the assay with UO-31. The growth at 100 µM is -91% in the assay with NCI-H322M [11], -44% with SNB-75 [12] and -82% in the assay with T47D.

The values are drawn from ChEMBL document CHEMBL3994622, “Design and synthesis of new RAF kinase-inhibiting antiproliferative quinoline derivatives. Part 2: Diarylurea derivatives” (Eur J Med Chem, 2017).
